The target in series [1] is T1, ST receptor (rat intestinal membrane) (Rattus norvegicus, UniProt P23897).
T1 construct: in 96 well plates containing ca. 1 μg rat intestinal membrane; from tissue; host or cells: rat intestinal membrane
T1 sequence (P23897 23-1072): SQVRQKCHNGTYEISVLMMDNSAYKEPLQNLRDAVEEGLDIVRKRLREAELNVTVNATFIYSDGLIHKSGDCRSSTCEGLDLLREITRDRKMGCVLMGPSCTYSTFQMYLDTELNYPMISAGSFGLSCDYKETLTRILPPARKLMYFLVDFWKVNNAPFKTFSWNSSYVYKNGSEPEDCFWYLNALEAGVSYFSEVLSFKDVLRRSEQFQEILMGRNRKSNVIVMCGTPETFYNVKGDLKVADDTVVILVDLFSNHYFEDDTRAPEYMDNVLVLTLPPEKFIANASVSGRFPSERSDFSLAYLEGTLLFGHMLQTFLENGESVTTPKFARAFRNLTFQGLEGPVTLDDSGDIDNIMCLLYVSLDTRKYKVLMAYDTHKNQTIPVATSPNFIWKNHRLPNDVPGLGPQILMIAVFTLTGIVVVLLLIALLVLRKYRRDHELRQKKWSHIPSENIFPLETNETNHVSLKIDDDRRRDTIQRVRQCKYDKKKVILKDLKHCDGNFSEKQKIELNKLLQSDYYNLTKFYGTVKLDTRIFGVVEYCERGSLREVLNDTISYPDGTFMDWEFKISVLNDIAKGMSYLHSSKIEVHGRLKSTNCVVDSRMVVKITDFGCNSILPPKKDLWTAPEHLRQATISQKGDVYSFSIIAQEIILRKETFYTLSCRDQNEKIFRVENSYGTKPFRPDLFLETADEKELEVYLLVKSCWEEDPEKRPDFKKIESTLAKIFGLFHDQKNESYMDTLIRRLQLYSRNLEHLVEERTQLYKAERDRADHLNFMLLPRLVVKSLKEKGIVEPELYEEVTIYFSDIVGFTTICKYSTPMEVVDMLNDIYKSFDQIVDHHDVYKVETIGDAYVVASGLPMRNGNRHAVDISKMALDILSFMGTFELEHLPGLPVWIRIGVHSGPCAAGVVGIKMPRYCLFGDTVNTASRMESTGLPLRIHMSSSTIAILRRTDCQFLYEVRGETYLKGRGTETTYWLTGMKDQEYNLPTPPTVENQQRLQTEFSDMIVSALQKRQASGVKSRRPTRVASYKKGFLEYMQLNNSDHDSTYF
The experiment in a line: Competition binding assay against [125I]ST1-17. The protocol:
Compounds were assessed for their potency by radioligand binding assay to determine inhibition constant (Ki) as a measure of potency of binding. Methods are described elsewhere, but briefly, [^125I]ST1-17 was competed with cold ST compounds (0.0001-50 μM) in 96 well plates containing ca. 1 μg rat intestinal membrane and incubated 1 hr, 37° C. Samples were filtered (GF/B filters, Whatman) to retrieve bound radiolabelled peptide and counted to determine % Bound/Free.
Potency of compounds was determined by inhibition constant (Ki) for their ability to compete with radioligand, [^125I]ST1-17.

Series [2] deals with sub-cutaneous T84 tumours. Put plainly: Uptake of labelled conjugate and negative control into CRC tumours. In kind it is in vivo, mouse. To be noted: CD-1 nude mice bearing s.c. T84 tumours.
In series [3] the target is T1, ST receptor (rat intestinal membrane). Put plainly: Radioactive binding assay of HPLC purified radiolabelled compounds. To be noted: ca. 0.05 nM radiolabelled compound, 6 μg rat intestinal membrane, one hour. How it is done:
To determine whether radiolabelling affected the binding of the compound, labelled compounds were tested for their ability to bind the receptor. Briefly HPLC purified radiolabelled compounds (ca. 0.05 nM) were incubated with 6 μg/150 μl final volume of rat intestinal membrane (one hour), in the presence and absence of competing peptide (50 μM ST5-18). Samples were filtered (GF/B filters, Whatman) to retrieve bound radiolabelled peptide and counted to determine % Bound/Free. Non-specific binding accounted for less than 1% in all cases.
In order to ensure that potency was maintained post-labelling, an assay measuring binding of labelled compounds was developed.

The test system of series [4] is sub-cutaneous T84 tumours (T84 human colon carcinoma cells). The experiment in a line: Biodistribution in a subcutaneous tumour model. In kind it is in vivo, mouse. To be noted: 60 min p.i. The protocol: The sub-cutaneous model was used as an appropriate initial in vivo screen. Briefly, mice (female nude CD-1, ca. 20 g; Charles River) were injected sub-cutaneously into the neck with T84 human colon carcinoma cells (0.1 ml, 1×10^8 cells/ml in medium) through a 23-gauge needle and allowed to develop tumours over 6-8 weeks.
At least three animals per test point were studied. Results are expressed as % injected dose per gram (% ID/g) of tissue.
Compounds were screened for their uptake into sub-cutaneous T84 tumours in the mouse (Table IV). This model allows assessment of the imageability of CA1-ST5-18 by allowing comparison between tumour and background tissue uptake.

Series [5] concerns T84 tumours subcutaneously. The experiment in a line: Imaging in the subcutaneous tumour model (planar gamma camera). In kind it is in vivo, mouse. To be noted: HPLC purified, 20 MBq per animal. The protocol:
Tumour to liver ratios were; 1.1 at 15 minutes, 2 at 60 minutes and 4 at 120 minutes.
Tumours were grown as in Example 17. Animals were monitored for tumour growth for 8 to 10 weeks, until tumours were 0.5-1 cm in size. After this time, animals were injected with test article (0.1 ml, 20 MBq/ml or 200 MBq/ml) as an intravenous bolus via the tail vein. At various times p.i. animals were euthanased and whole body planar images acquired between 5 minutes and 24 hours p.i. using a gamma camera (Park Medical Isocam-1). Image acquisition times were typically 15-30 min or 150-250K counts (whole body, LEUHR collimator).

The next series relates to T84 liver tumours. Put plainly: Imaging in liver metastases model. In kind it is in vivo, rat. To be noted: image of Example 21 (FIG. 8). How it is done:
The image is a whole body image with background counts removed and kidneys masked. Image tumour:liver ratio was typically 2.5.
The liver metastases model was used in both mice and rats. As for the subcutaneous tumour model except in establishing tumours, cells were injected via the spleen and allowed to transfer to the liver via the circulation. Two minutes after injection of cells, a splenectomy was performed. Animals were allowed to generate tumours over 6-8 weeks.
Tumours were grown in animal as described in Example 20. Animals were monitored for tumour growth for 8 to 10 weeks, until tumours were 0.5-1 cm in size. After this time, animals were injected with test article (0.1 ml, 200 MBq/ml) as an intravenous bolus via the tail vein. At various times p.i. animals were euthanased and whole body planar images acquired between 5 minutes and 24 hours p.i. using a gamma camera (Park Medical Isocam-1). Image acquisition times were typically 15-30 min or 150-250K counts (whole body, LEUHR collimator). […] The image has the kidneys masked to improve the resolution of the imaged metastases.

Setting [6] is: Mean Ki value (nM), competition with [125I]ST1-17, ca. 1 μg rat intestinal membrane, 1 hr, 37° C., means of triplicate wells.

Ends that are not written are not given here. Peptide text beside a SMILES is read from it. * marks the point of attachment. X1 = CCOC(C)SCC(=O)NC(CCCC(=O)*)C(=O)NCC(=O)NCC(=O)O

The Ki is a dissociation constant, usually derived from enzyme kinetics or from competition with a known ligand. Lower therefore signals a stronger hold on the target. As for `C/C(=N/O)C(C)(C)NCCN(CCNC(=O)CCC(=O)N[C@H]1CSSC[C@@H]2NC(=O)[C@@H]3CSSC[C@@H](C(=O)N[C@@H](Cc4ccc(O)cc4)C(=O)O)NC(=O)CNC(=O)[C@H](C)NC(=O)[C@H](CSSC[C@H](NC1=O)C(=O)N[C@@H](CCC(=O)O)C(=O)N[C@@H](CC(C)C)C(=O)N3)NC(=O)[C@H](C)NC(=O)[C@@H]1CCCN1C(=O)[C@H](CC(N)=O)NC2=O)CCNC(C)(C)/C(C)=N\O` [CA1-ST5-18], the inhibition constant (Ki) in series [1] (setting [6]) amounted to 2.8 nM; in series [1] (Mean Ki value (nM), mock-labelled (subjected to the radiolabelling protocol in the absence of radiometal)) it was 3.5 nM.
“99mTc-labelled CA1-ST5-18: CA1-ST5-18 peptide-chelate conjugate radiolabelled with 99mTc (CCELCCNPACAGCY; disulfide (positions not given here); not fully specified (N-terminus); ends not checked; also: 99mTc label chelated by CA1, three disulfides, pairing not given here)”: the “uptake into tumour (FIG. 5)” value in series [2] was “good uptake”. In addition, the “binding, % of added radioactive material” value in series [3] was 6%. In series [4], the “excreted / cleared via urine” value was “greater than 90%”. For the same molecule, the “Tumour to liver ratio (image)” value in series [5] (15 minutes) came out at 1.1; in series [5] (60 minutes) it was 2; in series [5] (120 minutes) it was 4. Further, the “tumour:liver ratio based on ROI analysis” value with T84 liver tumours is reported as 1.5-3.0.
`CC(C)C[C@@H]1NC(=O)[C@H](CCC(=O)O)NC(=O)[C@@H]2CSSC[C@@H]3NC(=O)[C@H](C)NC(=O)[C@@H]4CCCN4C(=O)[C@H](CC(N)=O)NC(=O)[C@H](CSSC[C@H](N)C(=O)N2)NC(=O)[C@H](CSSC[C@@H](C(=O)N[C@@H](Cc2ccc(O)cc2)C(=O)O)NC(=O)CNC(=O)[C@H](C)NC3=O)NC1=O` [ST5-18] had a Ki in series [1] (Ki, competition binding) of 0.4 nM.
Take `CCOC(C)SCC(=O)NC(CCCC(=O)N[C@H]1CSSC[C@@H]2NC(=O)[C@@H]3CSSC[C@@H](C(=O)N[C@@H](Cc4ccc(O)cc4)C(=O)O)NC(=O)CNC(=O)[C@H](C)NC(=O)[C@H](CSSC[C@H](NC1=O)C(=O)N[C@@H](CCC(=O)O)C(=O)N[C@@H](CC(C)C)C(=O)N3)NC(=O)[C@H](C)NC(=O)[C@@H]1CCCN1C(=O)[C@H](CC(N)=O)NC2=O)C(=O)NCC(=O)NCC(=O)O` (some centres unmarked) [CA3-ST5-18]: the Ki in series [1] (Ki value (nM), Table IV screening data) amounted to 0.8 nM; in series [1] (Ki, competition binding) it was 0.8 nM; in series [1] (setting [6]), 0.8 nM.
`CCOC(C)SCC(=O)NC(CCCC(=O)N[C@@H](C)C(=O)N[C@@H](C)C(=O)N[C@@H](CCC(=O)O)C(=O)N[C@@H](CC(C)C)C(=O)N[C@@H](C)C(=O)N[C@@H](C)C(=O)N[C@@H](CC(N)=O)C(=O)N1CCC[C@H]1C(=O)N[C@@H](C)C(=O)N[C@@H](C)C(=O)N[C@@H](C)C(=O)NCC(=O)N[C@@H](C)C(=O)N[C@@H](Cc1ccc(O)cc1)C(=O)O)C(=O)NCC(=O)NCC(=O)O` (some centres unmarked) [CA3-ST5-18(cys-ala), reference compound] (X1-AAELAANPAAAGAY-OH): the “Ki value (nM)” value in series [1] (Table IV screening data) is on record as “none”. Besides, the Ki result in series [1] (competition binding) is recorded as “no binding”. For the same molecule, the “Mean Ki value (nM)” value in series [1] (competition with [125I]ST1-17, ca. 1 μg rat intestinal membrane, 1 hr, 37° C., means of triplicate wells) is on record as “none”.
Turning to `C/C(=N/O)C(C)(C)NCCN(CCNC(=O)CCC(=O)NCC(=O)NCC(=O)NCC(=O)NC(CCC(=O)O)C(=O)NC(CCC(=O)O)C(=O)NC(CCC(=O)O)C(=O)N[C@H]1CSSC[C@@H]2NC(=O)[C@@H]3CSSC[C@@H](C(=O)N[C@@H](Cc4ccc(O)cc4)C(=O)O)NC(=O)CNC(=O)[C@H](C)NC(=O)[C@H](CSSC[C@H](NC1=O)C(=O)N[C@@H](CCC(=O)O)C(=O)N[C@@H](CC(C)C)C(=O)N3)NC(=O)[C@H](C)NC(=O)[C@@H]1CCCN1C(=O)[C@H](CC(N)=O)NC2=O)CCNC(C)(C)/C(C)=N\O` (some centres unmarked) [CA1-gly3-Dglu3-ST5-18], the Ki in series [1] (Ki, competition binding) amounted to 1 nM.
